Measured values from patent US20070212700A1, “Methods of using and analyzing biological sequence data” (THE BOARD OF REGENTS OF THE UNIVERSITY OF TEXAS SYSTEM, priority 2005, published 2007).

Key:
[1] = test system: biotinylated oriented peptide libraries (group I PPxY, group II PPLP, group III PPR, group IV pS/pT-P); test: Oriented peptide library binding assay (ELISA) for WW domain specificity
Description: FIGS. 25A-D: Assays for binding affinity and specificity in WW domains. FIG. 25A: five N-terminal biotinylated oriented peptide libraries were constructed to present either a proline-only control (biotin-Z-GMAxxxxPxxxxAKKK (SEQ ID NO:162)) or the four different characteristic WW domain binding motifs: group I-oriented (biotin-Z-GMAxxxPPxYxxxAKKK-C (SEQ ID NO:163)), group II-oriented (biotin-Z-GMAxxxPPLPxxxAKKK (SEQ ID NO:164)), group III-oriented (biotin-Z-GMAxxxPPRxxxAKKK (SEQ ID NO:165)), and group IV-oriented (biotin-Z-GMAxxxxpSPxxxxAKKK (SEQ ID NO:166)), where Z is 6-aminohexanoic acid, pS is phosphoserine, and x denotes all amino acids except Cys. Binding to these peptides indicte affinity for the consensus motifes listed in FIG. 25A (SEQ ID NO:167-171). […] FIG. 25C: binding specificity of artificial WW domains from the CC55 set. Binding is reported in fold above background binding in the absence of target peptides. Shown are the mean and standard deviation of at least four independent assays. FIG. 25D: the binding specificity of additional artificial and natural WW domains.
An oriented peptide library binding assay was developed for measuring WW domain specificity, and a set of natural and artificial sequences was studied. Four biotinylated degenerate peptide libraries were constructed, each oriented around one group-specific WW recognition motif, and binding was detected using an ELISA assay (see FIGS. 25A and 25B). For example, the group I oriented peptide library was biotin-Z-GMAxxxPPxYxxxAKKK (SEQ ID NO:163), where Z is 6-aminohexanoic acid and x stands for any amino acid except cysteine (theoretical degeneracy of 8.9×10^8 sequences). A fifth proline-oriented library was also made as a control for non-specific binding. Natural WW domains that folded in the work described above were subjected to this assay. […] Similarly, the assay confirms known group III (FE65) and IV (Pin1) domains.

PPxY-containing peptide = test: Peptide binding to wild-type and mutant Nedd4.3 WW domains by isothermal titration calorimetry (double mutant cycle); details: Nedd4.3 WW domain
Description: FIGS. 6A-C: A spatially distributed network underlying WW specificity. FIG. 6A: two views of the Nedd4.3 WW domain (in blue CPK), with residues comprising the cluster of eight co-evolving residues as red CPK with a transparent van der Waals surface. The cluster forms a physically connected network that links binding site residues at positions 21, 23, and 28 with the opposite side residues at positions 3 and 4 through a few intervening residues at positions 6, 8, and 22. FIG. 6B: the thermodynamic mutant cycle formalism for measuring energetic coupling between a pair of mutations. The method involves measuring equilibrium dissociation constants for peptide binding for four proteins: wild-type (WT), a mutation at one site (M1), a mutation at a second site (M2), and the double mutation M1, M2. The fold effect of M1 is calculated for the wild type background (X1) or for the background of the second mutation (X2). The thermodynamic coupling parameter Ω is defined as the ratio of these two fold effects (X1/X2)— the degree to which the effect of one mutation depends on the second. FIG. 6C: double mutant cycle analysis of co-evolving positions in the N39 (Nedd4.3) WW domain. […] Peptide binding to wild-type and mutant WW domains was measured using isothermal titration calorimetery. […]

CC55-15: artificial WW domain from the CC55 set (SEQ ID NO:35) (AGLPQGWEAAFDNSGAVYYVNPNTGKTQWERPCLEN)
binding specificity / binding class [1]: group III binding profile

FE65: natural WW domain, known group III (SDLPAGWMRVQDTSGTYYWHIPTGTTQWEPPGR)
binding specificity / binding class [1]: group III

L3A: alanine mutant at position 3 of the Nedd4.3 WW domain (GPAPPGWEERTHTDGRVFFINHNIKKTQWEDPRM)
fold effect of single mutation on peptide binding relative to wild-type (PPxY-containing peptide; PPxY-containing peptide, ITC): 5.15+/−0.99 fold
effect of mutation in the background of T28A (PPxY-containing peptide; mutant cycle): diminished

Nedd4.3: natural group I WW domain, Nedd4.3 (N39) (GPLPPGWEERTHTDGRVFFINHNIKKTQWEDPRM)
binding specificity / binding class [1]: specific interaction with the PPxY-containing sequences
